In PMC12040169 (PLOS Biology, 2025):

Test: in vitro
Details: human, hela cells, % viability

Q: For `Cc1cccc(NS(=O)(=O)c2ccc(I)cc2)n1` [CBK268818], which viability at 28.5 h, 10 µM is on record?
A: 87%

Q: For `O=C(Cc1ccccc1)Nc1ccc(NC(=O)c2ccc(-c3ccccc3)cc2)cc1` [CBK268821], which viability at 28.5 h, 10 µM is on record?
A: 87.2%

Q: With `COc1ccccc1OCCn1c(=N)n(CC(N)=O)c2ccccc21` [CBK268822C] as the compound, how does the viability at 28.5 h, 10 µM read?
A: 88.6%

Q: With `COc1ccc2cc(Br)ccc2c1CC(=O)Nc1ccccc1[N+](=O)[O-]` [CBK268823] as the compound, how does the viability at 28.5 h, 10 µM read?
A: 95.8%

Q: Which viability at 28.5 h, 10 µM does the source give for `O=C(Nc1nc2ccc(Cl)cc2s1)c1nc(SCc2ccccc2)ncc1Cl` [CBK268825] here?
A: 98.2%

Q: Which viability at 28.5 h, 10 µM does the source give for `Cc1cc(-c2nnc(SCC(=O)N3CCCc4ccccc43)o2)no1` [CBK268828] here?
A: 88%

Q: For `Cn1c2ccccc2c2nnc(SCCCC(=O)c3ccc(F)cc3)nc21` [CBK268830], which viability at 28.5 h, 10 µM is on record?
A: 92.8%

Q: For `CCc1ccc(NC(=N)Nc2nc(CSc3ncccn3)cc(=O)[nH]2)cc1` [CBK268836], which viability at 28.5 h, 10 µM is on record?
A: 88.1%

Q: Which viability at 28.5 h, 10 µM does the source give for `Cc1nnc(SCc2cc(=O)[nH]c(N3CCN(Cc4ccccc4)CC3)n2)s1` [CBK268837] here?
A: 104%

Q: Which viability at 28.5 h, 10 µM does the source give for `Cc1nnc(SCC(=O)Nn2c(-c3ccccc3)nc3ccccc3c2=O)[nH]1` [CBK268841] here?
A: 86.8%

Q: For `COc1ccc(F)cc1S(=O)(=O)Nc1cccc(C)n1` [CBK268842], which viability at 28.5 h, 10 µM is on record?
A: 84.9%

Q: For `NC(=O)C1CCN(C(=O)CCCSc2nc(-c3ccco3)cc(C(F)(F)F)n2)CC1` [CBK268844], which viability at 28.5 h, 10 µM is on record?
A: 98.5%

Q: With `O=C(NCC(O)c1ccc([N+](=O)[O-])cc1)c1cccc(S(=O)(=O)N2CCCC2)c1` (centres unmarked) [CBK268847] as the compound, how does the viability at 28.5 h, 10 µM read?
A: 119%

Q: For `COc1ccc(N2C(=O)CC(N3CCN(c4ccc(S(=O)(=O)N5CCCC5)cc4)CC3)C2=O)cc1` (centres unmarked) [CBK268851], which viability at 28.5 h, 10 µM is on record?
A: 85.1%

Q: With `CCOC(=O)C1CCN(Cc2nc(-c3ccc(OC)c(OC)c3)no2)CC1` [CBK268852] as the compound, how does the viability at 28.5 h, 10 µM read?
A: 92.4%

Q: With `CC(Oc1ccccc1)C(=O)Nc1ccc(-c2csc(-c3ccccc3)n2)cc1` (centres unmarked) [CBK268855] as the compound, how does the viability at 28.5 h, 10 µM read?
A: 103%

Q: For `CCOc1ccc(C)cc1S(=O)(=O)NCCc1c(C)[nH]c2c(Cl)cccc12` [CBK268859], which viability at 28.5 h, 10 µM is on record?
A: 86.8%

Q: Which viability at 28.5 h, 10 µM does the source give for `Cc1noc(/C=C\c2cc(C)n(-c3ccc(C(=O)O)cc3)c2C)c1[N+](=O)[O-]` [CBK268862] here?
A: 98.8%

Q: Which viability at 28.5 h, 10 µM does the source give for `Cc1c(Cl)cccc1NC(=S)/N=C(\N)Nc1nc(C)c2ccccc2n1` [CBK268866] here?
A: 86.9%

Q: Which viability at 28.5 h, 10 µM does the source give for `O=C(CN1CCN(c2ccccn2)CC1)N1c2ccccc2CCc2ccccc21` [CBK268868G] here?
A: 98.4%

Q: Which viability at 28.5 h, 10 µM does the source give for `CSc1ncc(Cl)c(C(=O)Nc2ccc(S(=O)(=O)N3CCC(Cc4ccccc4)CC3)cc2)n1` [CBK268870] here?
A: 96.3%

Q: With `Cc1ccc(-c2cn(S(=O)(=O)c3cccc4nsnc34)nc2N)cc1` [CBK268871] as the compound, how does the viability at 28.5 h, 10 µM read?
A: 113%

Q: For `c1ccc2nc3c(nc2c1)sc1nc2ccccc2n13` [CBK268872], which viability at 28.5 h, 10 µM is on record?
A: 104%

Q: Which viability at 28.5 h, 10 µM does the source give for `CCc1nnc(Sc2ccc(C=O)cc2[N+](=O)[O-])[nH]1` [CBK268876] here?
A: 95.4%

Q: For `Cc1ccc(-c2noc(CSc3nnc(-c4ccncc4)n3-c3ccc(C)cc3)n2)cc1` [CBK268879], which viability at 28.5 h, 10 µM is on record?
A: 101%

Q: For `CCN1CCN(C(=O)CN(C)S(=O)(=O)c2ccc(OC)c(C)c2)CC1` [CBK268880], which viability at 28.5 h, 10 µM is on record?
A: 110%

Q: For `CCOC(=O)c1cnc(Nc2nc3ccccc3o2)nc1CSc1ncccn1` [CBK268885], which viability at 28.5 h, 10 µM is on record?
A: 103%

Q: With `CSc1ncc(Cl)c(C(=O)Nc2sc3c(c2C(=O)NC2CCS(=O)(=O)C2)CCC(C)C3)n1` (centres unmarked) [CBK268886] as the compound, how does the viability at 28.5 h, 10 µM read?
A: 95.2%

Q: Which viability at 28.5 h, 10 µM does the source give for `N#Cc1ccccc1COC(=O)c1cc(-c2ccc(/C=C/c3[nH]c(=O)[nH]c(=O)c3[N+](=O)[O-])o2)ccc1Cl` [CBK268888] here?
A: 111%

Q: For `CCOC(=O)C1=C(CSc2nc3ccccc3[nH]2)NC(=O)NC1c1cccc([N+](=O)[O-])c1` (centres unmarked) [CBK268889], which viability at 28.5 h, 10 µM is on record?
A: 96.2%

Q: With `N=C(Nc1nc(CSc2nnc(N)s2)cc(=O)[nH]1)Nc1ccc(Cl)cc1Cl` [CBK268890] as the compound, how does the viability at 28.5 h, 10 µM read?
A: 85.5%

Same assay, conditions: human, hela cells, % viability, bulk resorufin, single well

Q: Which viability at 28.5 h, 10 µM does the source give for `Cc1ccc(Cl)cc1N1C(=O)NC(=O)C(CCc2ccccn2)(CCc2ccccn2)C1=O` [CBK268838] here?
A: 98.6%
